One compound from patent US20130261134A1, “MESYLATE SALT FORMS OF A POTENT HCV INHIBITOR” (Boehringer Ingelheim International GmbH, priority 2012, published 2013) can be followed below.

The solubility is the dissolved amount per volume that the medium holds.

Some results are limits rather than exact numbers.

The nature of this series: Solubility in the physiological pH range. In kind it is physicochemical. The settings on record: aqueous buffer; physiological pH range of 2-6.8.

Compound `Cn1c(C2(NC(=O)c3ccc4c(C5CCCC5)c(-c5ncc(Br)cn5)n(C)c4c3)CCC2)nc2ccc(/C=C/C(=O)O)cc21` [Compound (1), (E)-3-[2-(1-{[2-(5-Bromo-pyrimidin-2-yl)-3-cyclopentyl-1-methyl-1H-indole-6-carbonyl]-amino}-cyclobutyl)-3-methyl-3H-benzimidazol-5-yl]-acrylic acid] returned a solubility of less than 0.2 µg/mL.
